The test system of assay [1] is primary hippocampal neurons. Nature of the assay: Aβo-dependent dendritic spine loss in primary hippocampal neurons. Conditions: Aβo for 4 days. The format is cell-based, mouse. The source says:
FIGS. 11A-11H illustrate the finding that Aβo-induced dendritic spine deficits are prevented by deletion of Pyk2 and RhoA inhibition in primary neurons. FIG. 11A: Representative images of dendritic spine motility by standard deviation projection of time-lapse image. […] The standard deviation value for each pixel is shown by thermal color scale. Scale bar, 10 μm. FIG. 11B: Quantification of spine motility, expressed as % of changed area of spines with subtraction of changed area of dendritic shaft as background (changed area=(ΔAspine/Aspine×100)−(ΔAshaft/Ashaft×100)). […]
It was considered whether the acute effects of Aβo-induced, Pyk2-mediated decrease on spine motility might be translated into alteration in spine number over longer time periods. Dendritic spine density was measured in populations of vehicle and Aβo treated primary hippocampal neuron cultures. […]
Analysis and quantification of data were performed with Volocity software after max intensity projection. The numbers of dendritic spines were counted manually to estimate the density of primary or secondary dendritic branch by observer unaware of drug or genotype. For each condition, at least 3 dendrites were measured from each neuron and 5-7 neurons were imaged per coverslip. […]

The target in the next assay is Fyn (Homo sapiens, UniProt P06241). The settings on record: cited from earlier work.
Fyn, sequence (P06241 whole entry, species assumed): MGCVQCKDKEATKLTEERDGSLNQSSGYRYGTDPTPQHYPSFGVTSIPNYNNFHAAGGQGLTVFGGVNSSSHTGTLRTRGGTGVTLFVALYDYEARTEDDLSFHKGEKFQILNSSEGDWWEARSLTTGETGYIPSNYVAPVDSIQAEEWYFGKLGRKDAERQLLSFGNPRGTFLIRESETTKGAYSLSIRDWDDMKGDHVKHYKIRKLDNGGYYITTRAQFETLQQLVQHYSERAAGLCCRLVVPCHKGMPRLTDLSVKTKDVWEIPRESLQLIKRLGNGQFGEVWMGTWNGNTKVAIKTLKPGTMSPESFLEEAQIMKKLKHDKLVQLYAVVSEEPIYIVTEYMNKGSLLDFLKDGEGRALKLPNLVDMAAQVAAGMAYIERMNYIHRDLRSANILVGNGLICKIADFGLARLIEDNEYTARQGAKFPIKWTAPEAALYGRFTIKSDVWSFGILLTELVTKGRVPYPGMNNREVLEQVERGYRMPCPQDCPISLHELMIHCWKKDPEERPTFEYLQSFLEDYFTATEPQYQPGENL
For assay [2], the target named is T1, Pyk2 (Homo sapiens, UniProt Q14289). Conditions: cited from earlier work.
T1 sequence (Q14289 whole entry, species assumed): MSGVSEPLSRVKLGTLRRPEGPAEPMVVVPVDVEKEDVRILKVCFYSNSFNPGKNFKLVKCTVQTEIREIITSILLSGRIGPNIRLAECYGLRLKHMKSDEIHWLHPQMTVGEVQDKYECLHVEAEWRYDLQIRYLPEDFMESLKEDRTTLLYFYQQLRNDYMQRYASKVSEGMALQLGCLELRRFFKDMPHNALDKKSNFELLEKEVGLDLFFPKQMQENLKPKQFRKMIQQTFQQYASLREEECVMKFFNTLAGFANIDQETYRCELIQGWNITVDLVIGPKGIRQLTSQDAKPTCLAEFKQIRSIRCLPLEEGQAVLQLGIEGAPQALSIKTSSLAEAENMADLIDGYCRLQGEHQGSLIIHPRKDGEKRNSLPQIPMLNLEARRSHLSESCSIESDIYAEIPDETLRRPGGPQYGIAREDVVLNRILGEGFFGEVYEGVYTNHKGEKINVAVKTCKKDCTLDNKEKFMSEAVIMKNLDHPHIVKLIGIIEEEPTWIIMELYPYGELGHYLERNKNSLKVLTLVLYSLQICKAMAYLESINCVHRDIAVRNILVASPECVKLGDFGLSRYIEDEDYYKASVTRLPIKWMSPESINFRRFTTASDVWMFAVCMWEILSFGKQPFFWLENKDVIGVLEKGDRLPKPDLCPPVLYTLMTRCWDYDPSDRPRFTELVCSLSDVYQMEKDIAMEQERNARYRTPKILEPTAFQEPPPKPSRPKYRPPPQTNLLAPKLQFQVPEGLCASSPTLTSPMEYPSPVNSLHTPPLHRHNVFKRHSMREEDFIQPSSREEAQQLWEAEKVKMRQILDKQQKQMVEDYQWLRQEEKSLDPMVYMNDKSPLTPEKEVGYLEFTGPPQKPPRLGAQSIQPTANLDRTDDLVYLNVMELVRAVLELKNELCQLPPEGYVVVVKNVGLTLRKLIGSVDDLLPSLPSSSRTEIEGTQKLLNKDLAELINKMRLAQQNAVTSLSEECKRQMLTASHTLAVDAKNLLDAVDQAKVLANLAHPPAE
For assay [3], the system named is cultured mouse hippocampal neurons. Nature of the assay: GFP-Pyk2 overexpression-induced dendritic spine loss in cultured hippocampal neurons. The settings on record: PF-719 1 μM; Y27632 10 μM; DIV 17-21. The format is cell-based.
Source text: FIG. 7A: TBS-T soluble human Alzheimer's disease brain extracts were immunoblotted with anti-Pyk2 or anti-pY402 Pyk2 specific antibodies. FIG. 7B: Densitometric analysis of the immunoblots from FIG. A. p-Pyk2/Pyk2 ratio values were normalized to control mean value. Data are graphed as mean±SEM (Control, n=10; AD, n=10). *p<0.05 by Student's two-tailed t test. FIG. 7C: Representative immunofluorescent images of Pyk2 immunoreactivity from hippocampal CA1 in WT and Pyk2 null mice at 12-months age. […] FIG. 7D: Hek293T cells were co-transfected with either control vector or flag-tagged Fyn and GFP-tagged Pyk2 or K457A kinase dead mutant. Lysates were immunoblotted with anti-GFP (for GFP tagged Pyk2 and K457A mutant), anti-Fyn, and anti-pSFK antibodies. FIG. 7E: Representative GFP fluorescent images of cultured mouse hippocampal neurons. […] FIG. 7G: Quantification of dendritic spine density in the transfected neurons.
FIG. 10A: GST-RBD pull-down assay from Hek293T cell lysate from cells expressing indicated plasmids. […] FIG. 10B: Levels of RhoA-GTP (RBD pull-down) and RhoA-total (5% lysate) were quantified by densitometric measurement. […] FIG. 10D: Quantification of RhoA-GTP/total RhoA ratio by densitometric analysis. […] FIG. 10E: Representative GFP fluorescence images of the cultured hippocampal neurons. […] FIG. 10F: Quantification of dendritic spine density. […]
The target of assay [4] is T1, Pyk2. Nature of the assay: Luciferase-based (ADP-Glo) PYK2 kinase assay. The format is biochemical. As to the method:
Enzyme, substrate, ATP and inhibitors are diluted in Tyrosine Kinase Buffer. […] The resulting system is incubated at room temperature for 60 minutes. 5 μl of ADP-GLO™ Reagent are added. […] 10 μl of Kinase Detection Reagent are added. […] Luminescence is recorded (Integration time 0.5-1 second).
(In general: In ADP-Glo the light output rises with the ADP produced.)

In assay [5] the test system is primary hippocampal neurons. Nature of the assay: Dendritic spine motility in primary hippocampal neurons. Type of assay: cell-based, mouse. Conditions: Aβo 24 hours; PF-719 1 μM, Y27632 10 μM.
Source text: FIG. 11A: Representative images of dendritic spine motility by standard deviation projection of time-lapse image. […] The standard deviation value for each pixel is shown by thermal color scale. […] FIG. 11B: Quantification of spine motility, expressed as % of changed area of spines with subtraction of changed area of dendritic shaft as background (changed area=(ΔAspine/Aspine×100)−(ΔAshaft/Ashaft×100)). […] Data are graphed as mean±SEM (n=7-8 coverslips from 3 different cultures). **p<0.01, ***p<0.001 by ANOVA, Tukey's multiple comparisons test.
FIG. 18A: Representative images of dendritic spine motility by standard deviation projection of time stacks. […] To display the spine motility in time-lapse images, the time stack images over 5 min of each conditions were projected to standard deviation using Image J and color coated with thermal color scale. […] FIG. 18B: Quantification of spine motility, expressed as % of changed area of spines with subtraction of dendritic shaft area change (changed area=(ΔAspine/Aspine×100)−(ΔAshaft/Ashaft×100)). Mean±SEM (n=5 coverslips).
Time-lapse images were acquired for 5 minutes with 10 second intervals in Tyrode's solution using 60× objective lens driven Volocity software. Time-lapse images (31 time frames over 5 min) were subjected to standard deviation (STD) projection to visualize spine motility in single image and colorized with thermal scale using ImageJ software (NIH). Quantitative measurements of spine motility by calculating the changed area at individual dendritic spines were conducted by using ImageJ software by an observer unaware of treatment group.

The values that follow come from patent US20190275040A1, “COMPOUNDS AND METHODS FOR TREATING OR PREVENTING ALZHEIMER'S DISEASE” (YALE UNIVERSITY, priority 2016, published 2019).

Where two headings read alike, the source gives them in different places.

For orientation: Ki means a measure of affinity in units of concentration, obtained from inhibition or displacement. Consider `CCOc1ccc2nc(SCc3nc(N)nc(N4CCOCC4)n3)sc2c1` [PF-719, 4-(((6-ethoxybenzo[d]thiazol-2-yl)thio)methyl)-6-morpholino-1,3,5-triazin-2-amine], for which the “Aβo dependent spine loss” value in assay [1] is “rescue fully Aβo dependent spine loss”. The Ki at Fyn was greater than 1000 nM; on Pyk2 [2] (isolated Pyk2, read-out: Ki for isolated Pyk2) it was 15 nM; at Pyk2 [2] (read-out: Pyk2 Ki), 10 nM. Further, the GFP-Pyk2-induced spine loss entry in assay [3] was “partial rescue”. Also, on Pyk2 [4], the “Pyk2 inhibition in luciferase-based biochemical assay” value is listed as “confirm the respective specificities”. The “Aβo-induced decrease in spine motility” value in assay [5] was “rescue fully the Aβo-induced decrease in spine motility”.
